# Measured values: US20120157401A1, “METHODS FOR TREATING NEUROFIBROMATOSIS” (PTC Therapeutics, Inc., priority 2009, published 2012)
# Key:
# [1] = system: human VEGF121 and VEGF165; assay: HT1080 xenograft dose response: intratumoral and pathologic plasma human VEGF ELISA; assay type: in vivo
# Procedure: Experimental Study Design. HT1080 cells (5×10^6 cells/mouse) were implanted subcutaneously in male athymic nude mice.
# Tumor size was measured using calipers at periodic intervals during the study (data shown in Section 9.2.2). […] The study was ended after 18 days, when the vehicle treated tumors reached a mean volume of ˜1755 mm^3. […] Mice were sacrificed, and excised tumors were homogenized in buffer containing protease inhibitors. Both terminal intratumoral and pathologic plasma human VEGF levels were measured using an ELISA that recognizes human VEGF121 and VEGF165 (as described in Section 9.1.1.1). Intratumoral VEGF levels were normalized to the total tumor protein concentration, while pathologic plasma human VEGF levels were expressed in pg/mL of plasma.
# [2] = system: VEGF-A; assay: Patients: serum and plasma VEGF-A levels; assay type: in vivo, human
# Procedure: Subjects with NF2 may receive continuous daily treatment with a Compound administered at 100 mg per dose, 2 times a day (BID) for up to 1 year, or longer as appropriate, or until tumor progression. […] Tumor shrinkage or an improvement in hearing are indicators of efficacy.
# Anti-angiogenic activity: Assessing VEGF concentrations provides a relevant and convenient mechanism-specific marker of Compound activity. […] For example, clinically validated ELISA kits (e.g., from R&D Systems, Minneapolis, Minn.) may be used to measure concentrations of VEGF, VEGF-C, P1GF, VEGFR, and inflammatory mediators such as IL-6 and IL-8. CT scan and MRI scan may also be used to assess peritumoral inflammation or edema.
# Blood for VEGF, VEGFR, and Cytokines. Two blood samples (1 for plasma and 1 for serum) may be obtained for assessment of VEGF, VEGFR, and cytokine levels.
# Each sample for plasma collection may comprise 3 mL of venous blood drawn into a […]® tube with K2EDTA as the anticoagulant. Immediately after collection, the tube may be gently inverted 8 to 10 times to mix the anticoagulant with the blood sample. The tube may be stored upright at room temperature until centrifugation; centrifugation and sample processing may be performed within 30 minutes of sample collection. […]
# [3] = Oral toxicokinetics in dogs; assay type: in vivo, beagle dogs
# Procedure: The pharmacokinetic evaluations in mice were adjuncts to the primary pharmacodynamic xenograft studies. The evaluations in rats included toxicokinetic assessments in single-dose, 7-day, and 28-day toxicology studies as well as a mass-balance study after a single oral dose of ^14C-Compound #10. The evaluations in dogs included toxicokinetic assessments in 7-day and 28-day toxicology studies. In the studies performed, rodents were dosed once daily with Compound #10 formulated in vehicle and administered via oral gavage.
# [4] = system: tumor vessels (CD31 endothelial cells); assay: Intratumoral microvessel density, anti-murine CD31 immunostain, HT1080 xenografts; assay type: in vivo, athymic nude mice; settings: racemic mixture, 5 mg/kg of Compound #10 oral BID, 10 days
# Procedure: Experimental Design. HT1080 cells (5×10^6 cells/mouse) were implanted subcutaneously in male athymic nude mice.
# At the end of treatment, the mice were sacrificed. Excised tumors were assayed by ELISA for VEGF content as described in Section 9.1.1.1, and were sectioned and immunostained with an anti murine CD31 antibody that is specific for endothelial cells.
# [5] = system: HT1080 cells; assay: HT1080 spheroid cell viability and mobility (migration after re-plating); assay type: cell-based, human
# Procedure: Experimental Design. […] Pictures were then taken 48 hours to assess the migration and proliferation of the cells across the well's surface.
# [6] = system: HT1080 spheroids; assay: 3-dimensional growth of HT1080 spheroids (BrdU / 7-AAD FACS, morphology); assay type: cell-based, human
# Procedure: Experimental Design. HT1080 cells grown as a monolayer were trypsinized and seeded onto a 0.75% agar noble base to prevent the cells from attaching to the bottom of the tissue culture plate and to allow/promote the cells to self-adhere and grow as 3-dimensional spheroids. […] The cells were incubated for 22 and 45 hours at 37° C., in the presence of a 10% CO2 atmosphere. Spheroids were visually checked daily for morphological changes and a medium was replenished two times per week. […] These pulse labeled spheroids were then harvested, washed and trypsinized (triple action solution, Gibco), pelleted and prepared for FACS analysis with a FITC BrdU Flow Kit, (BD Pharmingen). Cells were fixed and permeabilized with paraformadehyde and DNA stained with 7-AAD followed by incubation with an antibody which specifically recognizes […] incorporated into DNA. As described in Section 9.3.1.4. Cells were analyzed and sorted by 7-AAD signal (DNA content) to determine cell cycle phase, and BrdU content (percent actively synthesizing DNA).
# Spheroids, prepared as above, were treated with either vehicle alone (0.5% DMSO v/v final) added to the media or a Compounds provided herein (10 nM or 50 nM final concentration) in media to which vehicle has been added.
# [7] = all Compound #10 dose groups (0.3-10 mg/kg, oral, 18 days)
smiles,measurement,setting,value
COc1ccc(C2c3[nH]c4ccc(Cl)cc4c3CCN2C(=O)Oc2ccc(Cl)cc2)cc1 (racemic) [Compound #10],Reduction in tumor and pathologic plasma human VEGF concentrations,[1]; 0.3 mg/kg BID,partial reductions
same,Pathologic human VEGF levels in plasma,[1]; [7],significantly suppressed
same,Pathologic human VEGF levels in tumors,[1]; [7],significantly suppressed
same,Reduction in tumor and pathologic plasma human VEGF concentrations,[1]; dose levels of ≧1 mg/kg BID,essentially maximal
same,Plasma VEGF-A levels in patients (FIG. 35),[2],reduced
same,Serum VEGF-A levels in patients (FIG. 34),[2],reduced
same,Oral bioavailability,[3],orally bioavailable
same,Total volume of tumor vessels and diameters of vessels,[4],visibly reduced
same,Tumor vessel count,[4],unchanged
same,"Proliferative and migratory capacity after three-week exposure, re-plated in the absence of compound",[5]; 50 nM for 3 weeks,does not reduce either the proliferative or the migratory capacity
same,Migration of cells out of control spheroids re-plated in the presence of compound,"[5]; 50 nM, 48 hours",blocked in their ability to migrate out of the spheroid
same,Cell cycle distribution of HT1080 spheroids,[6]; 24 or 48 hours,not affected
same,Percentage of spheroid cells that incorporated BrdU,[6]; 24 or 48 hours,not significantly altered
same,Morphology of spheroids,"[6]; maintained in the presence of compound for three weeks, data not shown",no obvious morphological changes
